# Assay: Cytotoxic activity against human HuH7 cells containing HCV subgenomic replicons Ava5-EG(D4AB)SEAP by MTS assay
# Type: cell-based, Huh-7
# Settings: not given
row,SMILES,CC50
1,O=C(N[C@@H](C(=O)N1CCC[C@H]1c1nc(-c2ccccc2)no1)c1ccccc1)N1CCOCC1,> 50000 nM
2,O=C(Nc1cccnc1)N[C@@H](C(=O)N1CCC[C@H]1C(=O)Nc1nc(-c2ccccc2)cs1)c1ccccc1,> 50000 nM
3,O=C(N[C@@H](C(=O)N1CCC[C@H]1C(=O)Nc1nc(-c2ccccc2)cs1)c1ccccc1)c1cccnc1,> 50000 nM
4,CCC(=O)N[C@@H](C(=O)N1CCC[C@H]1C(=O)Nc1nc(-c2ccccc2)cs1)c1ccccc1,> 50000 nM
5,CN1CCN(C(=O)N[C@@H](C(=O)N2CCC[C@H]2C(=O)Nc2nc(-c3ccccc3)cs2)c2ccccc2)CC1,> 50000 nM
6,O=C(Nc1nc(-c2ccccc2)cs1)[C@@H]1CCCN1C(=O)[C@H](NC(=S)NC1CCCC1)c1ccccc1,> 50000 nM
7,CN(C)C(=O)N[C@@H](C(=O)N1CCC[C@H]1C(=O)Nc1nc(-c2ccccc2)cs1)c1ccccc1,> 50000 nM
8,O=C(N[C@@H](C(=O)N1CCC[C@H]1c1nc(-c2ccccc2)cs1)c1ccccc1)N1CCOCC1,> 50000 nM
9,O=C(Nc1nc(C2CCCCC2)cs1)[C@@H]1CCCN1C(=O)[C@H](NC(=O)N1CCOCC1)c1ccccc1,> 50000 nM
10,O=C(N[C@@H](C(=O)N1CCC[C@H]1C(=O)Nc1nc(-c2ccccc2)cs1)c1ccccc1)C1CCCCC1,> 50000 nM
11,O=C(Nc1nc(-c2ccccc2)cs1)[C@@H]1CCCN1C(=O)[C@H](NC(=S)Nc1cccnc1)c1ccccc1,> 50000 nM
12,CC(C)(C)[C@@H](NC(=O)N1CCOCC1)C(=O)N1CCC[C@H]1C(=O)Nc1nc(-c2ccccc2)cs1,> 50000 nM
13,O=C(NC1CCCC1)N[C@@H](C(=O)N1CCC[C@H]1C(=O)Nc1nc(-c2ccccc2)cs1)c1ccccc1,> 50000 nM
14,Cc1csc(NC(=O)[C@@H]2CCCN2C(=O)[C@H](NC(=O)N2CCOCC2)c2ccccc2)n1,> 50000 nM
15,O=C(Nc1ccncc1)N[C@@H](C(=O)N1CCC[C@H]1C(=O)Nc1nc(-c2ccccc2)cs1)c1ccccc1,> 50000 nM
16,O=C(Nc1nc(-c2ccccc2)cs1)[C@@H]1CCCN1C(=O)[C@H](NC(=O)N1CCCCC1)c1ccccc1,> 50000 nM
17,O=C(N[C@@H](C(=O)N1CCC[C@H]1c1ncc(-c2ccccc2)[nH]1)c1ccccc1)N1CCOCC1,> 50000 nM
18,O=C(N[C@@H](C(=O)N1CCC[C@H]1C(=O)Nc1nc(-c2ccccc2)cs1)c1ccccc1)c1ccccn1,> 50000 nM
19,CCC[C@@H](NC(=O)N1CCOCC1)C(=O)N1CCC[C@H]1C(=O)Nc1nc(-c2ccccc2)cs1,> 50000 nM
20,O=C(NC1CCCCCC1)N[C@@H](C(=O)N1CCC[C@H]1C(=O)Nc1nc(-c2ccccc2)cs1)c1ccccc1,> 50000 nM
21,CC(C)(C)C(=O)N[C@@H](C(=O)N1CCC[C@H]1C(=O)Nc1nc(-c2ccccc2)cs1)c1ccccc1,> 50000 nM
22,CCCC(=O)N[C@@H](C(=O)N1CCC[C@H]1C(=O)Nc1nc(-c2ccccc2)cs1)c1ccccc1,> 50000 nM

# Assay: Inhibition of NS5A in HCV genotype 1b Ava5 infected in human HuH7 cells containing Ava5-EG(D4AB)SEAP subgenomic replicons assessed as reduction in viral replicon growth incubated for 1 day by Phospha-light assay method
# Type: cell-based, Hepatitis C virus subtype 1b
# Settings: Hepatitis C virus, Ava5, 24 h
row,SMILES,EC50
1,O=C(N[C@@H](C(=O)N1CCC[C@H]1c1nc(-c2ccccc2)no1)c1ccccc1)N1CCOCC1,> 50000 nM
2,O=C(Nc1cccnc1)N[C@@H](C(=O)N1CCC[C@H]1C(=O)Nc1nc(-c2ccccc2)cs1)c1ccccc1,1.9 nM
3,O=C(N[C@@H](C(=O)N1CCC[C@H]1C(=O)Nc1nc(-c2ccccc2)cs1)c1ccccc1)c1cccnc1,13 nM
4,CCC(=O)N[C@@H](C(=O)N1CCC[C@H]1C(=O)Nc1nc(-c2ccccc2)cs1)c1ccccc1,23 nM
5,CN1CCN(C(=O)N[C@@H](C(=O)N2CCC[C@H]2C(=O)Nc2nc(-c3ccccc3)cs2)c2ccccc2)CC1,0.85 nM
6,O=C(Nc1nc(-c2ccccc2)cs1)[C@@H]1CCCN1C(=O)[C@H](NC(=S)NC1CCCC1)c1ccccc1,5.2 nM
7,CN(C)C(=O)N[C@@H](C(=O)N1CCC[C@H]1C(=O)Nc1nc(-c2ccccc2)cs1)c1ccccc1,11 nM
8,O=C(N[C@@H](C(=O)N1CCC[C@H]1c1nc(-c2ccccc2)cs1)c1ccccc1)N1CCOCC1,9440 nM
9,O=C(Nc1nc(C2CCCCC2)cs1)[C@@H]1CCCN1C(=O)[C@H](NC(=O)N1CCOCC1)c1ccccc1,6 nM
10,O=C(N[C@@H](C(=O)N1CCC[C@H]1C(=O)Nc1nc(-c2ccccc2)cs1)c1ccccc1)C1CCCCC1,14 nM
11,O=C(Nc1nc(-c2ccccc2)cs1)[C@@H]1CCCN1C(=O)[C@H](NC(=S)Nc1cccnc1)c1ccccc1,23 nM
12,CC(C)(C)[C@@H](NC(=O)N1CCOCC1)C(=O)N1CCC[C@H]1C(=O)Nc1nc(-c2ccccc2)cs1,7060 nM
13,O=C(NC1CCCC1)N[C@@H](C(=O)N1CCC[C@H]1C(=O)Nc1nc(-c2ccccc2)cs1)c1ccccc1,13 nM
14,Cc1csc(NC(=O)[C@@H]2CCCN2C(=O)[C@H](NC(=O)N2CCOCC2)c2ccccc2)n1,400 nM
15,O=C(Nc1ccncc1)N[C@@H](C(=O)N1CCC[C@H]1C(=O)Nc1nc(-c2ccccc2)cs1)c1ccccc1,22 nM
16,O=C(Nc1nc(-c2ccccc2)cs1)[C@@H]1CCCN1C(=O)[C@H](NC(=O)N1CCCCC1)c1ccccc1,3.1 nM
17,O=C(N[C@@H](C(=O)N1CCC[C@H]1c1ncc(-c2ccccc2)[nH]1)c1ccccc1)N1CCOCC1,98 nM
18,O=C(N[C@@H](C(=O)N1CCC[C@H]1C(=O)Nc1nc(-c2ccccc2)cs1)c1ccccc1)c1ccccn1,22 nM
19,CCC[C@@H](NC(=O)N1CCOCC1)C(=O)N1CCC[C@H]1C(=O)Nc1nc(-c2ccccc2)cs1,270 nM
20,O=C(NC1CCCCCC1)N[C@@H](C(=O)N1CCC[C@H]1C(=O)Nc1nc(-c2ccccc2)cs1)c1ccccc1,3.8 nM
21,CC(C)(C)C(=O)N[C@@H](C(=O)N1CCC[C@H]1C(=O)Nc1nc(-c2ccccc2)cs1)c1ccccc1,86 nM
22,CCCC(=O)N[C@@H](C(=O)N1CCC[C@H]1C(=O)Nc1nc(-c2ccccc2)cs1)c1ccccc1,15 nM

# Source: ChEMBL document CHEMBL4052583, “A Potent, Selective, and Orally Bioavailable HCV NS5A Inhibitor for Treatment of Hepatitis C Virus: (S)-1-((R)-2-(Cyclopropanecarboxamido)-2-phenylacetyl)-N-(4-phenylthiazol-2-yl)pyrrolidine-2-carboxamide” (J Med Chem, 2017)
